From US10168342B2, “Lipid probes and uses thereof” (THE SCRIPPS RESEARCH INSTITUTE, priority 2015, dated 2019)
Like-named read-outs stand apart in the source and are kept apart here.

Legend:
[1] = biological target: T1, AEA-DA lipid probe targets in Neuro2a cells (Mus musculus, UniProt P61759)
T1 sequence (P61759 1-196): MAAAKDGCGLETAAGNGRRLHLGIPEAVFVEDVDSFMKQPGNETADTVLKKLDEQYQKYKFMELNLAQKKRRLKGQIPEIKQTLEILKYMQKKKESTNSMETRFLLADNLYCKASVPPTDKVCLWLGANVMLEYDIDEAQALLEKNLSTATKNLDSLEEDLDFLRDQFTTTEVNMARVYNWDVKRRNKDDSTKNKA

[2] = biological target: T2, AEA-DA lipid probe targets in Neuro2a cells (Mus musculus, UniProt Q61035)
T2 sequence (Q61035 1-509): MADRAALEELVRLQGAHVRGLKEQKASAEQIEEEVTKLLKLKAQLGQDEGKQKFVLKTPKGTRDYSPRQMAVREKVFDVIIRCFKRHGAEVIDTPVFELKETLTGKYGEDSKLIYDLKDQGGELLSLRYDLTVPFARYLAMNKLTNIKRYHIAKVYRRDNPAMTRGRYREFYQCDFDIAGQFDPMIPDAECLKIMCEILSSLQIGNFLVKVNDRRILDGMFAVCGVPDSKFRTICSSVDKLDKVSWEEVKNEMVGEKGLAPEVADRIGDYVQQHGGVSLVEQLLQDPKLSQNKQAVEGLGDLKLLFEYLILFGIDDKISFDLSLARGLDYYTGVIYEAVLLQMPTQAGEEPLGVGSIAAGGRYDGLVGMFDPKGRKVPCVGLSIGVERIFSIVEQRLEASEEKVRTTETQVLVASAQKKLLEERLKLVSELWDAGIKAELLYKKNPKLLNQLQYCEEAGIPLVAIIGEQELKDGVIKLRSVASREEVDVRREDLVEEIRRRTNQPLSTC

[3] = biological target: AEA-DA lipid probe targets in Neuro2a cells (Mus musculus, UniProt Q791T5)
AEA-DA lipid probe targets in Neuro2a cells (Mus musculus, UniProt Q791T5), sequence (Q791T5 whole entry): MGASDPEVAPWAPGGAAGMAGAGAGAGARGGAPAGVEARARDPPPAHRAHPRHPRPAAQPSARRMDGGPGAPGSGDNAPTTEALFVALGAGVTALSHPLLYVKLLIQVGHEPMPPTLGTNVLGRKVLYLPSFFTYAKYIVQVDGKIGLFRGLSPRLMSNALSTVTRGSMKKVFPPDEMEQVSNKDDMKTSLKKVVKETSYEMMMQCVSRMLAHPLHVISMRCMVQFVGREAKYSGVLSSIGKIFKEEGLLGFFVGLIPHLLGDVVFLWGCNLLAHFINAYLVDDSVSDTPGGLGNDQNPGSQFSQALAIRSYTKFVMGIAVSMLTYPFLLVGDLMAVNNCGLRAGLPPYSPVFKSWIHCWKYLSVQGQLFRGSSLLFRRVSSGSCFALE

[4] = biological target: T3, AEA-DA lipid probe targets in Neuro2a cells (Mus musculus, UniProt Q80WJ7)
T3 sequence (Q80WJ7 1-579): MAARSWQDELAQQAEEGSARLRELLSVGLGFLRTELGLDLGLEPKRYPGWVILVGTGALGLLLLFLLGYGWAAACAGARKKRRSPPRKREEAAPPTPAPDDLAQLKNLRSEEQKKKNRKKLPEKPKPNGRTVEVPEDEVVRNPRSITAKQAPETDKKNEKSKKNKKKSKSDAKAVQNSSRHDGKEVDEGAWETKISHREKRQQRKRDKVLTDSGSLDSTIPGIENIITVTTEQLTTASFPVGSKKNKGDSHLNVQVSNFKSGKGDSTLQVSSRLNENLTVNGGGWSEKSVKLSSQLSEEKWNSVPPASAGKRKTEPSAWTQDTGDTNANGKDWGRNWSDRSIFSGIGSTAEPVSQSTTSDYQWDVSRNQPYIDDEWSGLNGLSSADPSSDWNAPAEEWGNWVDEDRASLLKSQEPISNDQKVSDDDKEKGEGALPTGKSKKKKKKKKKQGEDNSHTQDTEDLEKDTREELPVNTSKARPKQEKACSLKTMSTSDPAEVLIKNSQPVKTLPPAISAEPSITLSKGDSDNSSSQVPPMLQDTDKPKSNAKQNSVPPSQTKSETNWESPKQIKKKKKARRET

[5] = biological target: AEA-DA lipid probe targets in Neuro2a cells (Mus musculus, UniProt Q8BUV8)
AEA-DA lipid probe targets in Neuro2a cells (Mus musculus, UniProt Q8BUV8), sequence (Q8BUV8 34-551): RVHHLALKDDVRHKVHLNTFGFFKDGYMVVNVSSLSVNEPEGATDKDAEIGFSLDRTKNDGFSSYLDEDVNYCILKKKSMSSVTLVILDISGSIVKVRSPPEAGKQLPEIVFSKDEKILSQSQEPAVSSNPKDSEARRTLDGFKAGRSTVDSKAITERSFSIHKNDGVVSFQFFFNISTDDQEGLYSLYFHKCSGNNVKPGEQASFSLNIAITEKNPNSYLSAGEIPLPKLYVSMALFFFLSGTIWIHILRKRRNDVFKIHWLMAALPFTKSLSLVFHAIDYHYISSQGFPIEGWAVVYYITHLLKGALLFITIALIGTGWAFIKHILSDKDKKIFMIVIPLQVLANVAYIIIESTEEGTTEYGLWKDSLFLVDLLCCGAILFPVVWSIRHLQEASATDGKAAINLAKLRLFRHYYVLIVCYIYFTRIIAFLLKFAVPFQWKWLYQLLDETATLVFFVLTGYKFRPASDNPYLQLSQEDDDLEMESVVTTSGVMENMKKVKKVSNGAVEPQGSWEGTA

[6] = biological target: AEA-DA lipid probe targets in Neuro2a cells (Mus musculus, UniProt Q8VDN2)
[7] = biological target: T4, AEA-DA lipid probe targets in Neuro2a cells (Mus musculus, UniProt Q91YQ5)
T4 sequence (Q91YQ5 26-608): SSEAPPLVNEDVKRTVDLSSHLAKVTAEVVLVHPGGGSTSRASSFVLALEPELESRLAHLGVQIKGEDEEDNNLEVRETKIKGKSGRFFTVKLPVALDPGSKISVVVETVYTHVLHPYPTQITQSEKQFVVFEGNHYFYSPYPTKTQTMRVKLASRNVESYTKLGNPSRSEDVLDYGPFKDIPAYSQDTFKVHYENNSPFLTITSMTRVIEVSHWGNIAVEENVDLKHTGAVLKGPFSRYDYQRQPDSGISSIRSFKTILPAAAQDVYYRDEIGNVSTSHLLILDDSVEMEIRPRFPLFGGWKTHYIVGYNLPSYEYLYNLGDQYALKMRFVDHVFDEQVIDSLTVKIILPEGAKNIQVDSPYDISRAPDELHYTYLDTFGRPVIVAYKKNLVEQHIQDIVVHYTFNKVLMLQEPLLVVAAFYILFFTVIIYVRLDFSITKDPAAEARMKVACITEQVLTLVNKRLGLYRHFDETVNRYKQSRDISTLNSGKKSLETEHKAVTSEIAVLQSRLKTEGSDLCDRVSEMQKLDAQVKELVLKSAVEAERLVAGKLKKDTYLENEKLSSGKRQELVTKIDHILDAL

[8] = biological target: T5, AEA-DA lipid probe targets in Neuro2a cells (Mus musculus, UniProt Q920A5)
T5 sequence (Q920A5 29-452): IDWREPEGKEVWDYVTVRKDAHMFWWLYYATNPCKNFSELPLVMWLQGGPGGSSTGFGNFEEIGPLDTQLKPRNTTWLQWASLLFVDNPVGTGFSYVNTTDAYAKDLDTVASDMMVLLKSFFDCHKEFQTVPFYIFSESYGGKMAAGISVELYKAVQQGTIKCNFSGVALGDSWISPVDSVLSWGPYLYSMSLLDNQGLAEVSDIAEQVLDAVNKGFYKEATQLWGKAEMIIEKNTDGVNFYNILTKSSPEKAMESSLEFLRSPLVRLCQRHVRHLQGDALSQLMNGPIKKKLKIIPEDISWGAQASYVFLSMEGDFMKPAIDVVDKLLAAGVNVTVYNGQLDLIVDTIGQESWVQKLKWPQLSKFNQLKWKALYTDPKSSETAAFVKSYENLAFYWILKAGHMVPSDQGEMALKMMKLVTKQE

**Q.** How did the “SILAC ratio, Vbp1” value ([1]; competitor 25 μM) turn out when C=CCN(C)CCCCCCOc1ccc(C(=O)c2ccc(Br)cc2)c(F)c1 [Ro 48-8071, reference compound] was run?
**A.** Its value is 0.9.

**Q.** And the “SILAC ratio Hars” value ([2]; competitor 25 μM)?
**A.** The value was 0.9.

**Q.** And the “SILAC ratio Mtch1” value ([3]; competitor 25 μM)?
**A.** The value was 0.9.

**Q.** And the “SILAC ratio Mtdh” value ([4]; competitor 25 μM)?
**A.** The value was 1.2.

**Q.** What about the “SILAC ratio, Gpr107” value ([5]; competitor 25 μM) of the same molecule?
**A.** Its value is 1.8.

**Q.** And the “SILAC ratio Atp1a1” value ([6]; competitor 25 μM)?
**A.** The value was 1.0.

**Q.** What about the “SILAC ratio Rpn1” value ([7]; competitor 25 μM) of the same molecule?
**A.** Its value is 0.9.

**Q.** And the “SILAC ratio Scpep1” value ([8]; competitor 25 μM)?
**A.** The value was 0.4.

**Q.** How did the “SILAC ratio, Vbp1” value ([1]; competitor 25 μM) turn out when CN1CCN(C(=O)c2[nH]c3ccc([N+](=O)[O-])cc3c2-c2ccccc2)CC1 [MJN228, (4-Methylpiperazin-1-yl)(5-nitro-3-phenyl-1H-indol-2-yl)methanone] was run?
**A.** Its value is 1.5.

**Q.** And the “SILAC ratio, Vbp1” value ([1]; competitor 50 μM)?
**A.** The value was 0.9.

**Q.** What about the “SILAC ratio, Vbp1” value ([1]; competitor 100 μM) of the same molecule?
**A.** The value was 2.0.

**Q.** And the “SILAC ratio Hars” value ([2]; competitor 10 μM)?
**A.** Its value is 1.6.

**Q.** What about the “SILAC ratio Hars” value ([2]; competitor 25 μM) of the same molecule?
**A.** Its value is 1.5.

**Q.** What about the “SILAC ratio Hars” value ([2]; competitor 50 μM) of the same molecule?
**A.** Its value is 1.0.

**Q.** What about the “SILAC ratio Hars” value ([2]; competitor 100 μM) of the same molecule?
**A.** The value was 1.4.

**Q.** And the “SILAC ratio Mtch1” value ([3]; competitor 10 μM)?
**A.** The value was 1.1.

**Q.** What about the “SILAC ratio Mtch1” value ([3]; competitor 25 μM) of the same molecule?
**A.** Its value is 1.2.

**Q.** What about the “SILAC ratio Mtch1” value ([3]; competitor 50 μM) of the same molecule?
**A.** The value was 1.0.

**Q.** And the “SILAC ratio Mtch1” value ([3]; competitor 100 μM)?
**A.** The value was 1.2.

**Q.** And the “SILAC ratio Mtdh” value ([4]; competitor 10 μM)?
**A.** The value was 1.3.

**Q.** What about the “SILAC ratio Mtdh” value ([4]; competitor 25 μM) of the same molecule?
**A.** Its value is 1.5.

**Q.** What about the “SILAC ratio Mtdh” value ([4]; competitor 50 μM) of the same molecule?
**A.** Its value is 1.6.

**Q.** What about the “SILAC ratio Mtdh” value ([4]; competitor 100 μM) of the same molecule?
**A.** Its value is 1.9.

**Q.** What about the “SILAC ratio, Gpr107” value ([5]; competitor 10 μM) of the same molecule?
**A.** Its value is 1.1.

**Q.** What about the “SILAC ratio, Gpr107” value ([5]; competitor 25 μM) of the same molecule?
**A.** Its value is 1.3.

**Q.** What about the “SILAC ratio, Gpr107” value ([5]; competitor 50 μM) of the same molecule?
**A.** Its value is 2.1.

**Q.** What about the “SILAC ratio, Gpr107” value ([5]; competitor 100 μM) of the same molecule?
**A.** The value was 2.9.

**Q.** What about the “SILAC ratio Atp1a1” value ([6]; competitor 10 μM) of the same molecule?
**A.** The value was 1.4.

**Q.** And the “SILAC ratio Atp1a1” value ([6]; competitor 25 μM)?
**A.** The value was 1.4.

**Q.** And the “SILAC ratio Atp1a1” value ([6]; competitor 50 μM)?
**A.** The value was 1.1.

**Q.** And the “SILAC ratio Atp1a1” value ([6]; competitor 100 μM)?
**A.** Its value is 1.2.

**Q.** What about the “SILAC ratio Rpn1” value ([7]; competitor 10 μM) of the same molecule?
**A.** The value was 1.3.

**Q.** What about the “SILAC ratio Rpn1” value ([7]; competitor 25 μM) of the same molecule?
**A.** The value was 1.4.

**Q.** What about the “SILAC ratio Rpn1” value ([7]; competitor 50 μM) of the same molecule?
**A.** Its value is 1.2.

**Q.** What about the “SILAC ratio Rpn1” value ([7]; competitor 100 μM) of the same molecule?
**A.** The value was 1.6.

**Q.** What about the “SILAC ratio Scpep1” value ([8]; competitor 10 μM) of the same molecule?
**A.** Its value is 1.2.

**Q.** And the “SILAC ratio Scpep1” value ([8]; competitor 25 μM)?
**A.** The value was 1.4.

**Q.** What about the “SILAC ratio Scpep1” value ([8]; competitor 50 μM) of the same molecule?
**A.** Its value is 1.5.

**Q.** And the “SILAC ratio Scpep1” value ([8]; competitor 100 μM)?
**A.** Its value is 1.9.

**Q.** How did the “SILAC ratio, Vbp1” value ([1]; competitor 200 μM) turn out when CCCCC/C=C\C/C=C\C/C=C\C/C=C\CCCC(=O)NCCO [AEA, anandamide, reference compound] was run?
**A.** The value was 1.1.

**Q.** And the “SILAC ratio Hars” value ([2]; competitor 200 μM)?
**A.** The value was 1.2.

**Q.** What about the “SILAC ratio Mtch1” value ([3]; competitor 200 μM) of the same molecule?
**A.** The value was 1.4.

**Q.** What about the “SILAC ratio Mtdh” value ([4]; competitor 200 μM) of the same molecule?
**A.** The value was 1.7.

**Q.** And the “SILAC ratio, Gpr107” value ([5]; competitor 200 μM)?
**A.** Its value is 1.6.

**Q.** And the “SILAC ratio Atp1a1” value ([6]; competitor 200 μM)?
**A.** The value was 1.4.

**Q.** And the “SILAC ratio Rpn1” value ([7]; competitor 200 μM)?
**A.** Its value is 1.6.

**Q.** And the “SILAC ratio Scpep1” value ([8]; competitor 200 μM)?
**A.** The value was 1.0.

**Q.** With CN1CCN(C(=O)c2c(-c3ccccc3)c3cc([N+](=O)[O-])ccc3n2C)CC1 [KML110, (1-Methyl-5-nitro-3-phenyl-1H-indol-2-yl)(4-methylpiperazin-1-yl)methanone] as the molecule, how does the “SILAC ratio, Vbp1” value ([1]; competitor 25 μM) read?
**A.** Its value is 1.6.

**Q.** And the “SILAC ratio Hars” value ([2]; competitor 25 μM)?
**A.** The value was 1.5.

**Q.** What about the “SILAC ratio Mtch1” value ([3]; competitor 25 μM) of the same molecule?
**A.** The value was 1.2.

**Q.** What about the “SILAC ratio Mtdh” value ([4]; competitor 25 μM) of the same molecule?
**A.** Its value is 1.5.

**Q.** And the “SILAC ratio, Gpr107” value ([5]; competitor 25 μM)?
**A.** The value was 1.5.

**Q.** What about the “SILAC ratio Atp1a1” value ([6]; competitor 25 μM) of the same molecule?
**A.** Its value is 1.2.

**Q.** What about the “SILAC ratio Rpn1” value ([7]; competitor 25 μM) of the same molecule?
**A.** The value was 1.2.

**Q.** And the “SILAC ratio Scpep1” value ([8]; competitor 25 μM)?
**A.** Its value is 1.6.

**Q.** Which results are given for O=C(/C=C/c1cccnc1)NCCCCC1CCN(C(=O)c2ccccc2)CC1 [FK-866, reference compound]?
**A.** SILAC ratio, Vbp1 ([1]; competitor 25 μM): 1.1; SILAC ratio Hars ([2]; competitor 25 μM): 1.3; SILAC ratio Mtch1 ([3]; competitor 25 μM): 1.0; SILAC ratio Mtdh ([4]; competitor 25 μM): 1.2; SILAC ratio, Gpr107 ([5]; competitor 25 μM): 1.0; SILAC ratio Atp1a1 ([6]; competitor 25 μM): 1.2; SILAC ratio Rpn1 ([7]; competitor 25 μM): 1.2; SILAC ratio Scpep1 ([8]; competitor 25 μM): 1.2
